In publication PMC7127169 (Bioorganic & Medicinal Chemistry, 2012):
“Also recorded” adds a separate entry of the source.

What was measured:
[1] = target: T1, SARS-CoV PL^pro (Severe acute respiratory syndrome coronavirus, UniProt P0C6U8); assay type: biochemical
[2] = target: SARS-CoV PL^pro deubiquitination (DUB) activity (Severe acute respiratory syndrome coronavirus, UniProt P0C6U8); experiment: biochemical
[3] = target: Chymotrypsin (Bos taurus, UniProt P00766); experiment: biochemical
[4] = target: T2, Papain (Carica papaya, UniProt P00784); experiment: biochemical
T2 sequence (P00784 134-345): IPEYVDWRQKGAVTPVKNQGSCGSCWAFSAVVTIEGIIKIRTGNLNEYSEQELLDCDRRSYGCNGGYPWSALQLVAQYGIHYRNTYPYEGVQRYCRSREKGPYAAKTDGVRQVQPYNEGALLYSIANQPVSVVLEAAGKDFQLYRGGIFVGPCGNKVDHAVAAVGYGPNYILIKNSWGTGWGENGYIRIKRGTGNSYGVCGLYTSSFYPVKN

[5] = target: HIV-1 protease (Human immunodeficiency virus type 1 group M subtype B, UniProt P04585); experiment: biochemical
[6] = target: T1, SARS-CoV PL^pro; assay type: biochemical; remark: listed apart in the source
[7] = target: SARS-CoV 3CL^pro (Severe acute respiratory syndrome coronavirus, UniProt P0C6U8); assay type: biochemical; conditions: at 200 μM

Compound `Cc1coc2c1C(=O)C(=O)c1c-2ccc2c1CCCC2(C)C` [Compound 1, Tanshinone IIA] has a k5 [1] of 0.04825 ± 0.006 min⁻¹, a k6 [1] of 0.008485 ± 0.0001 min⁻¹ and an IC50 [2] of over 200 µM.

`Cc1coc2c1C(=O)C(=O)c1c-2ccc2c1CCCC2(C)CO` (stereo not shown) [Compound 2, Tanshinone IIB] gave a k5 [1] of 0.02503 ± 0.003 min⁻¹, a k6 [1] of 0.004704 ± 0.0002 min⁻¹ and an IC50 [3] of over 200 µM. The IC50 [4] was over 200 µM and the IC50 [5] was over 200 µM.

`COC(=O)[C@@]1(C)CCCc2c1ccc1c2C(=O)C(=O)c2c(C)coc2-1` [Compound 3, Methyl tanshinonate] gave a k5 [1] of 0.0193 ± 0.001 min⁻¹, a k6 [1] of 0.002657 ± 0.0002 min⁻¹ and an IC50 [2] of over 200 µM. For the same compound, the IC50 [4] was over 200 µM.

`C[C@H]1COC2=C1C(=O)C(=O)c1c2ccc2c1CCCC2(C)C` [Compound 4, Cryptotanshinone] was tested, and the k5 [1] was 0.08127 ± 0.001 min⁻¹, the k6 [1] was 0.001406 ± 0.0001 min⁻¹ and the “slow-binding inhibition mechanism on PL^pro” value [1] was “slow-binding inhibition kinetics”. For the same compound, the “type of inhibition toward PL^pro” value [6] was “Noncompetitive inhibition”.

With `Cc1coc2c1C(=O)C(=O)c1c-2ccc2c(C)cccc12` [Compound 5, Tanshinone I] the k5 [1] was 0.03015 ± 0.003 min⁻¹, the k6 [1] was 0.003349 ± 0.0003 min⁻¹ and the IC50 [4] was over 200 µM.

`Cc1cccc2c3c(ccc12)C1=C(C(=O)C3=O)[C@@H](C)CO1` [Compound 6, Dihydrotanshinone I] showed a k5 [1] of 0.03203 ± 0.001 min⁻¹, a k6 [1] of 0.003175 ± 0.0003 min⁻¹ and an IC50 [3] of over 200 µM. The IC50 [4] was over 200 µM.

With `CC(C)C1=Cc2ccc3c(c2C(=O)C1=O)CCCC3(C)C` [Compound 7, Rosmariquinone] the k3 [1] was 5 ± 0.83 M⁻¹ s⁻¹, the k4 [1] was 0.006483 ± 0.0004 min⁻¹ and the “slow-binding inhibition mechanism on PL^pro” value [1] was “simple reversible slow-binding inhibition; also recorded: simple slow-binding mode; also recorded: simple reversible slow-binding inhibitor”. The “type of inhibition toward PL^pro” value [6] was “mixed type inhibition”.

For Salvianolic acid B, the “inhibition of 3CL^pro” value [7] was 30%.
